Reference: ChEMBL document CHEMBL4354847, “Congenetic Hybrids Derived from Dearomatized Isoprenylated Acylphloroglucinol with Opposite Effects on Cav3.1 Low Voltage-Gated Ca2+ Channel” (J Med Chem, 2020)
Values belong to the compound of their own block, whether it stands above or below them. Active and inactive are the calls of the source.

Key:
Assay type in all cases: cell-based
[1] = target: T1, T-type calcium channel alpha 1G subunit (Mus musculus, UniProt Q27YN9); assay: (§1) Antagonist activity at mouse Cav3.1 expressed in HEK293T cells assessed as inhibition of current amplitude at holding potential of -100 mV by whole cell electrophysiological method
T1 sequence (Q27YN9 whole entry): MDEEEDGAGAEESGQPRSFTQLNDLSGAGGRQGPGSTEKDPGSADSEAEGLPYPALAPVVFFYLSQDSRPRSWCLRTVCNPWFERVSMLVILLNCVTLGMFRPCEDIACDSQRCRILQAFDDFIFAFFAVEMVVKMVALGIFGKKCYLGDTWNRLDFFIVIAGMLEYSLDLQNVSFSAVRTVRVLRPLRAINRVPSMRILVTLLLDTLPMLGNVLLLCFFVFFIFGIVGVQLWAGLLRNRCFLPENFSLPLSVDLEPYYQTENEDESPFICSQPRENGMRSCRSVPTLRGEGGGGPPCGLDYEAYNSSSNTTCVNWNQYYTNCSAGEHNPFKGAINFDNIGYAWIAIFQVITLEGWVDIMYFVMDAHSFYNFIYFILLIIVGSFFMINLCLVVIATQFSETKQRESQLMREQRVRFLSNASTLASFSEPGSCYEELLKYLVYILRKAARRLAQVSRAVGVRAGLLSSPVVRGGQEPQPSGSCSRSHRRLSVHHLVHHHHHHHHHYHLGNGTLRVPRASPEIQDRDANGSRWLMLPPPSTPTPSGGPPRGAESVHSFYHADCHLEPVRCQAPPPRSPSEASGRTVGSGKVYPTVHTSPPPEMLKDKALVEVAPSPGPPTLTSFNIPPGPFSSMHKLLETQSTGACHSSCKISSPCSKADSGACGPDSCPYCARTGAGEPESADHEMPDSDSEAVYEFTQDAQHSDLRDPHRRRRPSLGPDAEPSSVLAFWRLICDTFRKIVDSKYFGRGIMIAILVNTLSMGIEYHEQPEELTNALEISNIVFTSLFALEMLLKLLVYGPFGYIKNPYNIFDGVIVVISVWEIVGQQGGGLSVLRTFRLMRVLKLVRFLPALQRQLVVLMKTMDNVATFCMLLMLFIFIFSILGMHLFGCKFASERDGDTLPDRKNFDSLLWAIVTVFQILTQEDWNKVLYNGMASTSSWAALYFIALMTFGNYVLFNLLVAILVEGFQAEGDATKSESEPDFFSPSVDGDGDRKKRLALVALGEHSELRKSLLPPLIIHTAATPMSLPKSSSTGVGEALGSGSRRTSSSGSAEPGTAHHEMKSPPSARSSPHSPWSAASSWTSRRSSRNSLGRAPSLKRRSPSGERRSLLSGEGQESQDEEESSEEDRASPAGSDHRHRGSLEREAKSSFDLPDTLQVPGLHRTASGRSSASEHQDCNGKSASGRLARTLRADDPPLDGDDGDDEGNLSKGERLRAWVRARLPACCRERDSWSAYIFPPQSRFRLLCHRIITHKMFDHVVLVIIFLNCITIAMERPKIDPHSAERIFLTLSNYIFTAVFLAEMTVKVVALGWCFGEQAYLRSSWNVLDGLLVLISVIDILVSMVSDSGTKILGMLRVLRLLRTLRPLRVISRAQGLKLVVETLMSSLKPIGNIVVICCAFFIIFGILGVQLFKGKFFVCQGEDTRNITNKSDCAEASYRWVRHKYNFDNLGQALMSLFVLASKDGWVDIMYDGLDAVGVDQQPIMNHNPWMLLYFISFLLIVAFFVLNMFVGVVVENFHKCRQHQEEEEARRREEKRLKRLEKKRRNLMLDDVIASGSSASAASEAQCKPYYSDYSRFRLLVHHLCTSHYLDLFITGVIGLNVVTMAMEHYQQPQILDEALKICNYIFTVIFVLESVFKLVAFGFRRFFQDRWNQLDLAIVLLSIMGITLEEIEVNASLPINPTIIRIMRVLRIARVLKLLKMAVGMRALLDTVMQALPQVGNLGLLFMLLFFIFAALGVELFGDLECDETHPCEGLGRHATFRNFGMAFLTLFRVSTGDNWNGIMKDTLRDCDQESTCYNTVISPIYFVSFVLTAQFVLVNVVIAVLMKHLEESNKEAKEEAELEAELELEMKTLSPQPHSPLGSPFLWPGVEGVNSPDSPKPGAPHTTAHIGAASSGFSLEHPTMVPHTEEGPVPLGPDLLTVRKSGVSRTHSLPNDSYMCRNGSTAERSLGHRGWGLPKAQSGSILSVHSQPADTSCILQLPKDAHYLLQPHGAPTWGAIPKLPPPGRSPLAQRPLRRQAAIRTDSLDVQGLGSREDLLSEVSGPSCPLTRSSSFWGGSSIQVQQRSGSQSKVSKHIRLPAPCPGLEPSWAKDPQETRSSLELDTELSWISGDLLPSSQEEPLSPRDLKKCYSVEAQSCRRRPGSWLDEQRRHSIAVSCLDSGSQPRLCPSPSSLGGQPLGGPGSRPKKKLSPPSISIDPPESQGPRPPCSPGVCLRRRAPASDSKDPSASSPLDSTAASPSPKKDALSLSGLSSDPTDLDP

[2] = target: T-type calcium channel alpha 1G subunit (Mus musculus) (UniProt Q27YN9); assay: as §1
Sequence of T-type calcium channel alpha 1G subunit (Mus musculus) (Q27YN9 as listed by the source): as the sequence (Q27YN9 whole entry) above

[3] = target: T-type calcium channel alpha 1G subunit (Mus musculus) (UniProt Q27YN9); assay: Antagonist activity at mouse Cav3.1 expressed in HEK293T cells assessed as inhibition of current amplitude at 10 uM at holding potential of -100 mV incubated prior to compound washout by whole cell electrophysiological method
[4] = target: T-type calcium channel alpha 1G subunit (Mus musculus) (UniProt Q27YN9); assay: Antagonist activity at mouse Cav3.1 expressed in HEK293T cells assessed as inhibition of current amplitude at 2 uM at holding potential of -100 mV in presence of hypatone-A by whole cell electrophysiological method
[5] = target: T-type calcium channel alpha 1G subunit (Mus musculus) (UniProt Q27YN9); assay: Agonist activity at mouse Cav3.1 expressed in HEK293T cells assessed as increase in current amplitude at 5 uM at holding potential of -100 mV in presence of hypatone-B by whole cell electrophysiological method
Mus musculus [6] = species: Mus musculus; assay: Agonist activity at mouse Cav3.1 R1715H mutant expressed in HEK293T cells assessed as change in half-maximal activation potential at 10 uM at holding potential of -100 mV by whole cell electrophysiological method (reference value: -38 +/- 4.3 mV)
Mus musculus [7] = species: Mus musculus; assay: Antagonist activity at mouse Cav3.1 R1715H mutant expressed in HEK293T cells assessed as depolarization of action potential at 10 uM at holding potential of -100 mV by whole cell electrophysiological method
Mus musculus [8] = species: Mus musculus; assay: Antagonist activity at mouse Cav3.1 R1715H mutant expressed in HEK293T cells assessed as change in time constant of inactivation at 10 uM at holding potential of -100 mV by whole cell electrophysiological method
Mus musculus [9] = species: Mus musculus; assay: Agonist activity at mouse Cav3.1 R1715H mutant expressed in HEK293T cells assessed as change in slope factor at 10 uM at holding potential of -100 mV by whole cell electrophysiological method
[10] = target: T1, T-type calcium channel alpha 1G subunit; assay: Agonist activity at mouse Cav3.1 expressed in HEK293T cells assessed as increase in current amplitude at holding potential of -100 mV by whole cell electrophysiological method
[11] = target: T-type calcium channel alpha 1G subunit (Mus musculus) (UniProt Q27YN9); assay: Agonist activity at mouse Cav3.1 expressed in HEK293T cells assessed as increase in current amplitude at 5 uM at holding potential of -100 mV measured after 12 to 14 secs by whole cell electrophysiological method
[12] = target: T-type calcium channel alpha 1G subunit (Mus musculus) (UniProt Q27YN9); assay: Agonist activity at mouse Cav3.1 expressed in HEK293T cells assessed as increase in current amplitude at 3 to 30 uM at holding potential of -100 mV incubated prior to compound washout by whole cell electrophysiological method
Mus musculus [13] = species: Mus musculus; assay: Agonist activity at mouse Cav3.1 R1715H mutant expressed in HEK293T cells assessed as shift in voltage dependence of activation at 10 uM at holding potential of -100 mV by whole cell electrophysiological method
Mus musculus [14] = species: Mus musculus; assay: Agonist activity at mouse Cav3.1 R1715H mutant expressed in HEK293T cells assessed as increase in 200 ms ramp from -100 to -40 mV after 100 ms hyperpolarization of -100 mV evoked peak of low threshold Ca2+ spike at 10 uM at -60 mV holding potential by whole cell electrophysiological method relative to control
[15] = target: T-type calcium channel alpha 1G subunit (Mus musculus) (UniProt Q27YN9); assay: Agonist activity at mouse Cav3.1 expressed in HEK293T cells assessed as half-maximal activation potential at 5 uM at holding potential of -100 mV by whole cell electrophysiological method (reference value: -44 +/- 2.8 mV)
[16] = Agonist activity at mouse Cav3.1 R1715H mutant expressed in HEK293T cells assessed as increase in current amplitude at holding potential of -100 mV by whole cell electrophysiological method; conditions: HEK-293T
[17] = target: T-type calcium channel alpha 1G subunit (Mus musculus) (UniProt Q27YN9); assay: Agonist activity at mouse Cav3.1 expressed in HEK293T cells assessed as increase in current amplitude at 300 uM at holding potential of -100 mV measured up to 150 millisecs in presence of LVGCC blocker Ni2+ by whole cell electrophysiological method
[18] = target: T-type calcium channel alpha 1G subunit (Mus musculus) (UniProt Q27YN9); assay: Antagonist activity at mouse Cav3.1 expressed in HEK293T cells assessed as change in slope factor at 5 uM at holding potential of -100 mV by whole cell electrophysiological method
[19] = target: T-type calcium channel alpha 1G subunit (Mus musculus) (UniProt Q27YN9); assay: Antagonist activity at mouse Cav3.1 expressed in HEK293T cells assessed as half-maximal inactivation potential at 5 uM at holding potential of -100 mV by whole cell electrophysiological method (reference value: -70.8 +/- 3 mV)
Mus musculus [20] = species: Mus musculus; assay: Agonist activity at mouse Cav3.1 R1715H mutant expressed in HEK293T cells assessed as normalized window current at 10 uM at holding potential of -100 mV by whole cell electrophysiological method
Mus musculus [21] = species: Mus musculus; assay: Agonist activity at mouse Cav3.1 R1715H mutant expressed in HEK293T cells assessed as change in time constant of activation at 10 uM at holding potential of -100 mV by whole cell electrophysiological method
[22] = target: T-type calcium channel alpha 1G subunit (Mus musculus) (UniProt Q27YN9); assay: Antagonist activity at mouse Cav3.1 expressed in HEK293T cells assessed as change in time constant of inactivation at 5 uM at holding potential of -100 mV by whole cell electrophysiological method
[23] = target: T-type calcium channel alpha 1G subunit (Mus musculus) (UniProt Q27YN9); assay: Agonist activity at mouse Cav3.1 expressed in HEK293T cells assessed as change in slope factor at 5 uM at holding potential of -100 mV by whole cell electrophysiological method
[24] = target: T-type calcium channel alpha 1G subunit (Mus musculus) (UniProt Q27YN9); assay: Agonist activity at mouse Cav3.1 expressed in HEK293T cells assessed as increase in window current at 5 uM at holding potential of -100 mV by whole cell electrophysiological method
[25] = target: T-type calcium channel alpha 1G subunit (Mus musculus) (UniProt Q27YN9); assay: Antagonist activity at mouse Cav3.1 expressed in HEK293T cells assessed as increase in half-maximal activation potential at 5 uM at holding potential of -100 mV incubated prior to compound washout by whole cell electrophysiological method
[26] = target: T-type calcium channel alpha 1G subunit (Mus musculus) (UniProt Q27YN9); assay: Agonist activity at mouse Cav3.1 expressed in HEK293T cells assessed as decrease in half-maximal activation potential at 5 uM at holding potential of -100 mV incubated prior to compound washout by whole cell electrophysiological method
[27] = target: T-type calcium channel alpha 1G subunit (Mus musculus) (UniProt Q27YN9); assay: Agonist activity at mouse Cav3.1 expressed in HEK293T cells assessed as change in time constant of activation at 5 uM at holding potential of -100 mV by whole cell electrophysiological method
[28] = target: Voltage-dependent T-type calcium channel subunit alpha-1G (Homo sapiens, UniProt O43497); assay: Agonist activity at Cav3.1 (unknown origin) expressed in HEK293T cells assessed as increase in current amplitude at holding potential of -100 mV by whole cell patch-clamp electrophysiological method
Sequence of Voltage-dependent T-type calcium channel subunit alpha-1G (O43497 whole entry): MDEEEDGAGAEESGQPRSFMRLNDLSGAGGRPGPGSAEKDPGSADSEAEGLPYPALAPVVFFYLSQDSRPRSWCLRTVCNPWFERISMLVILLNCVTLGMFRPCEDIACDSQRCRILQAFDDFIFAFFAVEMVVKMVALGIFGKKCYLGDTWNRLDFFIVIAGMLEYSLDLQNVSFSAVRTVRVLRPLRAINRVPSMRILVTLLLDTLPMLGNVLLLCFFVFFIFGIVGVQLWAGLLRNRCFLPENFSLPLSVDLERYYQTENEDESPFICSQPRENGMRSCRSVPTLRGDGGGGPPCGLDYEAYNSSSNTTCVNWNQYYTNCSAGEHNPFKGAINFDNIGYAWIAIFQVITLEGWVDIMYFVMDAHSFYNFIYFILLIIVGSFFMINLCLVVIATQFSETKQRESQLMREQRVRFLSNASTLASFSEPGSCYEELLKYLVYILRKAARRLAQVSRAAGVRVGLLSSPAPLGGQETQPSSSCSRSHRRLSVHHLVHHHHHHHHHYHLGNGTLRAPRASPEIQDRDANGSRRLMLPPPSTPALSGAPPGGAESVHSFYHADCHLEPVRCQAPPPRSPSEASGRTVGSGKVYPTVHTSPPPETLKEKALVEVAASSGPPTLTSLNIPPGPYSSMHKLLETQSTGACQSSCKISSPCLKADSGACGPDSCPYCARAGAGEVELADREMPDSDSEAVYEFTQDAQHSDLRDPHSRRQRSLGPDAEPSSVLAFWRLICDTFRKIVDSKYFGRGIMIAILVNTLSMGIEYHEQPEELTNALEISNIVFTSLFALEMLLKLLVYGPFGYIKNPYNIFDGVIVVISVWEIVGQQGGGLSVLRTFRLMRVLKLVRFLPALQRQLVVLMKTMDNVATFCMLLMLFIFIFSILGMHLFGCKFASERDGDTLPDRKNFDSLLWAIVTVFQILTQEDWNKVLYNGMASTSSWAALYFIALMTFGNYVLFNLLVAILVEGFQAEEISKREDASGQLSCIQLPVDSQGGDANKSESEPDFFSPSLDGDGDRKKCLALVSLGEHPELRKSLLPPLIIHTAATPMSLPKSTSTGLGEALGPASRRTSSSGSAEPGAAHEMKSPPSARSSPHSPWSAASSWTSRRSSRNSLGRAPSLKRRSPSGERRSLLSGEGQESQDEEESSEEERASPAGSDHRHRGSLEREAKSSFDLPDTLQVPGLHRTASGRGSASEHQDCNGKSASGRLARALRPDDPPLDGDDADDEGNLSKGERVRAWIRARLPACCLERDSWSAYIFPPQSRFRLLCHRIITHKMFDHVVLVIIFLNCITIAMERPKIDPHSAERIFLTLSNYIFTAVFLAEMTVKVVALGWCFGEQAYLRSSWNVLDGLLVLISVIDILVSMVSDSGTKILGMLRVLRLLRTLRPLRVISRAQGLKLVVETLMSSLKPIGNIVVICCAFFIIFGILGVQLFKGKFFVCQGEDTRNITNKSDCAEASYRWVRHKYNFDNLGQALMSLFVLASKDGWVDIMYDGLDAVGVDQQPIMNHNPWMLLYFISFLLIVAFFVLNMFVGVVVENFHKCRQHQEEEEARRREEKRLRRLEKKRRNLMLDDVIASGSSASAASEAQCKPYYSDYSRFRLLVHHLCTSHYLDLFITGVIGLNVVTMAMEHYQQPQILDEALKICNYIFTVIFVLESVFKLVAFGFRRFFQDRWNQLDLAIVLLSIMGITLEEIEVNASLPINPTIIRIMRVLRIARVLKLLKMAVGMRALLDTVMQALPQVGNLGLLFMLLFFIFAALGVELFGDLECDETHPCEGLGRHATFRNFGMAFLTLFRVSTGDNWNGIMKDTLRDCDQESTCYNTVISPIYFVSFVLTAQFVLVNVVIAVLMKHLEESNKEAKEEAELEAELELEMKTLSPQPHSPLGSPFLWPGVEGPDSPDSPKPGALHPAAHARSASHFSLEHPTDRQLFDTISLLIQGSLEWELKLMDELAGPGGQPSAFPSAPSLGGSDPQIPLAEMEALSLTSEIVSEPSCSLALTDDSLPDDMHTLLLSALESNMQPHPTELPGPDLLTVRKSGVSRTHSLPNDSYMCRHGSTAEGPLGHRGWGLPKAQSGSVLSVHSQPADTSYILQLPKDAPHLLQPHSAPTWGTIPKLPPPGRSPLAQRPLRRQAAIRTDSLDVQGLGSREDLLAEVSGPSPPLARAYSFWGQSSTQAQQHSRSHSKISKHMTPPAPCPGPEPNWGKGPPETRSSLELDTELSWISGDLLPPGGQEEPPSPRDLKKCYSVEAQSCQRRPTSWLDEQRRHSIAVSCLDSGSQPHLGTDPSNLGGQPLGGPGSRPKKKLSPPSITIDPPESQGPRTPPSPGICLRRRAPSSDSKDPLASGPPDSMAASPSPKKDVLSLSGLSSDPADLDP

IC50 [1]: 2.3 µM
inhibition [2]: Dose-dependent effect
inhibition [3]: Active
inhibition [4]: Active
SMILES: C=C(C)[C@H]1CC[C@@](C)(O)[C@@H](C2=C(O)C(CC=C(C)C)(CC=C(C)C)C(=O)C(C(=O)c3ccccc3)=C2O)C1

Activity [5]: Active
EC50 [10]: 3.8 µM
Activity [11]: Active
Activity [12]: inactive
V1/2 [15]: -47.6 mV
EC50 [16]: 9.6 µM
Activity [17]: inactive
Activity [18]: inactive
V1/2 [19]: -66.5 mV
Activity [22]: inactive
Activity [23]: inactive
Activity [24]: Active
Activity [25]: inactive
Activity [26]: inactive
Activity [27]: inactive
SMILES: CC(C)=CCC1(CC=C(C)C)C(=O)C(C(=O)c2ccccc2)=C2O[C@]3(C)CC[C@H]4C[C@@H]3[C@]2(C1=O)C4(C)C
V1/2 (Mus musculus [6]): -43.8 mV
Activity (Mus musculus [7]): inactive
Activity (Mus musculus [8]): inactive
Activity (Mus musculus [9]): inactive
Activity (Mus musculus [13]): inactive
Activity (Mus musculus [14]): 26.7%
Activity (Mus musculus [20]): Active
Activity (Mus musculus [21]): inactive

IC50 [1]: 3.5 µM
inhibition [2]: Dose-dependent effect
inhibition [3]: Active
SMILES: C=C(C)[C@H]1CC[C@@](C)(O)[C@@H](C2=C(O)C(CC=C(C)C)(CC=C(C)C)C(=O)C(C(=O)C(C)C)=C2O)C1

EC50 [28]: 12.5 µM
SMILES: CC(C)C1=C/C(=C2\C(=O)C=C3C(C)(C)CCC[C@@]32C)OC1=O

IC50 [1]: 0.19 µM
inhibition [2]: Dose-dependent effect
inhibition [3]: Active
SMILES: C=C(C)[C@H]1CC[C@@](C)(O)[C@@H](C2=C(O)C(CC=C(C)C)(CC=C(C)C)C(=O)C(C(=O)C(C)CC)=C2O)C1 (some centres undefined)
